From US20170000133A1, “BENZOXABOROLE FUNGICIDES” (SYNGENTA PARTICIPATIONS AG, priority 2013, published 2017) come the findings set out here.

SMILES strings stand for the structures. Where only a bound is given, the exact number is not on record here.

The subject of one test is Pythium ultimum. The experiment in a line: Pythium ultimum / liquid culture (seedling damping off). It is filed as cell-based. The following applies: Globisporangium ultimum, read-out: disease control (inhibition of growth determined photometrically).
The inhibition is the percentage by which the read-out fell short of the control. Regarding `COP(=O)(CCOC(=O)c1cc2c(cc1F)COB2O)OC` [Compound 416], the inhibition at 200 ppm is at least 80%.

Consider `COP(=O)(CCOC(=O)c1cc2c(cc1Cl)COB2O)OC` [Compound 228], for which the inhibition at 200 ppm was at least 80%.

The same test, now with this note: Globisporangium ultimum; 200 ppm; potato dextrose broth, 24° C., 2-3 days after application; read-out: disease control (inhibition of growth determined photometrically).
As for `CSc1nc(NC(=O)c2cc3c(cc2Cl)COB3O)n[nH]1` [Compound 149], the inhibition at 200 ppm was at least 80%.

In the case of `O=C(OCC1CCCO1)c1cc2c(cc1Cl)COB2O` (centres unmarked) [Compound 212], the inhibition at 200 ppm was at least 80%.

With `O=C(NCCCCl)c1cc2c(cc1F)COB2O` [Compound 70], the inhibition at 200 ppm was at least 80%.

As for `O=C(NCCOc1ccccc1)c1cc2c(cc1Cl)COB2O` [Compound 83], the inhibition at 200 ppm is at least 80%.

On to `CSc1nc(NC(=O)c2cc3c(cc2F)COB3O)n[nH]1` [Compound 177], for which the inhibition at 200 ppm is at least 80%.

`COc1ccc(CNC(=O)c2cc3c(cc2Cl)COB3O)cc1` [Compound 91]: the inhibition at 200 ppm was at least 80%.

As to `O=C(Nc1cccc2ncccc12)c1cc2c(cc1F)COB2O` [Compound 152], the inhibition at 200 ppm is at least 80%.

On to `O=C(Nc1ccccc1-c1cc2ccccc2[nH]1)c1cc2c(cc1Cl)COB2O` [Compound 135], for which the inhibition at 200 ppm was at least 80%.

With `O=C(OC1CCOCC1)c1cc2c(cc1F)COB2O` [Compound 428], the inhibition at 200 ppm is at least 80%.

Turning to `O=C(NCc1ccc(-n2cccn2)cc1)c1cc2c(cc1F)COB2O` [Compound 126], the inhibition at 200 ppm was at least 80%.

With `O=C(OC1CCOC1)c1cc2c(cc1F)COB2O` (centres unmarked) [Compound 426], the inhibition at 200 ppm is at least 80%.

Turning to `CC(CN1CCOCC1)OC(=O)c1ccc2c(c1)B(O)OC2` (centres unmarked) [Compound 322], the inhibition at 200 ppm was at least 80%.

For `Cn1cc(CCCOC(=O)c2cc3c(cc2Cl)COB3O)cn1` [Compound 219], the inhibition at 200 ppm is at least 80%.

In the case of `CS(=O)(=O)c1ccc(CNC(=O)c2cc3c(cc2F)COB3O)cc1` [Compound 86], the inhibition at 200 ppm was at least 80%.

For `O=C(Nc1ccc2ccccc2n1)c1ccc2c(c1)B(O)OC2` [Compound 300], the inhibition at 200 ppm is at least 80%.

For the molecule `COc1ccc(NC(=O)c2cc3c(cc2Cl)COB3O)c(OC)c1` [Compound 118], the inhibition at 200 ppm was at least 80%.

For the molecule `O=C(Nc1ccccc1Cl)c1cc2c(cc1Cl)COB2O` [Compound 108], the inhibition at 200 ppm was at least 80%.

On to `O=C(NCCc1ccc2c(c1)OCO2)c1cc2c(cc1Cl)COB2O` [Compound 58], for which the inhibition at 200 ppm was at least 80%.

For the molecule `O=C(NCc1ccccc1C(F)(F)F)c1ccc2c(c1)B(O)OC2` [Compound 275], the inhibition at 200 ppm was at least 80%.

For `O=C(Nc1ccccc1N1CCOCC1)c1ccc2c(c1)B(O)OC2` [Compound 293], the inhibition at 200 ppm is at least 80%.

With `Cc1cc(C)c2c(NC(=O)c3ccc4c(c3)B(O)OC4)[nH]nc2n1` [Compound 309], the inhibition at 200 ppm is at least 80%.

With `O=C(Nc1cc(-c2ccccc2)[nH]n1)c1cc2c(cc1Cl)COB2O` [Compound 160], the inhibition at 200 ppm was at least 80%.

As to `O=C(OCCCC(=O)N1CCCC1)c1cc2c(cc1Cl)COB2O` [Compound 220], the inhibition at 200 ppm is at least 80%.

In the case of `Cc1nnc(NC(=O)c2cc3c(cc2Cl)COB3O)s1` [Compound 164], the inhibition at 200 ppm is at least 80%.

`O=C(OC1CCOC1)c1cc2c(cc1Cl)COB2O` (centres unmarked) [Compound 235]: the inhibition at 200 ppm was at least 80%.

For the molecule `CN(C)S(=O)(=O)c1ccc(NC(=O)c2cc3c(cc2F)COB3O)cc1` [Compound 173], the inhibition at 200 ppm is at least 80%.

With `COCCOCCOCCOC(=O)c1cc2c(cc1Cl)COB2O` [Compound 239], the inhibition at 200 ppm was at least 80%.

For `O=C(NCCc1ccc2c(c1)OCO2)c1cc2c(cc1F)COB2O` [Compound 82], the inhibition at 200 ppm is at least 80%.

With `Cc1cc(O)nc(NC(=O)c2cc3c(cc2F)COB3O)n1` [Compound 178], the inhibition at 200 ppm was at least 80%.

Turning to `Cc1onc(-c2ccccc2)c1NC(=O)c1cc2c(cc1F)COB2O` [Compound 180], the inhibition at 200 ppm is at least 80%.

Consider `O=C(NCC1CCCO1)c1ccc2c(c1)B(O)OC2` (centres unmarked) [Compound 256], for which the inhibition at 200 ppm is at least 80%.

As for `CN(C)S(=O)(=O)c1ccc(NC(=O)c2ccc3c(c2)B(O)OC3)cc1` [Compound 295], the inhibition at 200 ppm is at least 80%.

Consider `O=C(Nc1cc(-c2ccccc2)[nH]n1)c1ccc2c(c1)B(O)OC2` [Compound 303], for which the inhibition at 200 ppm was at least 80%.

On to `CCOC(=O)C1CC=CCC1NC(=O)c1ccc2c(c1)B(O)OC2` (centres unmarked) [Compound 248], for which the inhibition at 200 ppm is at least 80%.

For the molecule `Cc1onc(-c2ccccc2)c1NC(=O)c1ccc2c(c1)B(O)OC2` [Compound 301], the inhibition at 200 ppm was at least 80%.

Consider `Cc1cc(O)nc(NC(=O)c2ccc3c(c2)B(O)OC3)n1` [Compound 299], for which the inhibition at 200 ppm is at least 80%.

For the molecule `O=C(Nc1cccc(F)c1)c1cc2c(cc1Cl)COB2O` [Compound 120], the inhibition at 200 ppm is at least 80%.

With `O=C(NCc1ccc(-n2cccn2)cc1)c1cc2c(cc1Cl)COB2O` [Compound 93], the inhibition at 200 ppm was at least 80%.

`O=C(Nc1ccc(-n2cccc2)cc1)c1ccc2c(c1)B(O)OC2` [Compound 287]: the inhibition at 200 ppm was at least 80%.

Consider `CS(=O)(=O)CCOC(=O)c1ccc2c(c1)B(O)OC2` [Compound 358], for which the inhibition at 200 ppm was at least 80%.

Consider `Cc1onc(-c2ccccc2)c1NC(=O)c1cc2c(cc1Cl)COB2O` [Compound 156], for which the inhibition at 200 ppm is at least 80%.

Take `O=C(NCc1ccccn1)c1ccc2c(c1)B(O)OC2` [Compound 52]: the inhibition at 200 ppm is at least 80%.

On to `O=C(OCCCC(=O)N1CCCC1)c1cc2c(cc1F)COB2O` [Compound 408], for which the inhibition at 200 ppm was at least 80%.

For the molecule `CSCCNC(=O)c1cc2c(cc1Cl)COB2O` [Compound 101], the inhibition at 200 ppm was at least 80%.

As for `O=C(NCc1ccccc1)c1cc2c(cc1Cl)COB2O` [Compound 71], the inhibition at 200 ppm is at least 80%.

As for `O=C(NCCC(F)(F)F)c1cc2c(cc1Cl)COB2O` [Compound 54], the inhibition at 200 ppm was at least 80%.

Regarding `O=C(NC1CCSC1=O)c1cc2c(cc1F)COB2O` (centres unmarked) [Compound 76], the inhibition at 200 ppm is at least 80%.

As for `Cc1cc(NC(=O)c2cc3c(cc2F)COB3O)n(C)n1` [Compound 175], the inhibition at 200 ppm was at least 80%.

Consider `O=C(NCc1ccc2c(c1)OCCO2)c1ccc2c(c1)B(O)OC2` [Compound 269], for which the inhibition at 200 ppm is at least 80%.

For `O=C(NCCc1cccs1)c1cc2c(cc1F)COB2O` [Compound 115], the inhibition at 200 ppm is at least 80%.

Consider `Cc1nnc(NC(=O)c2ccc3c(c2)B(O)OC3)s1` [Compound 305], for which the inhibition at 200 ppm is at least 80%.

On to `O=C(Nc1ccc2ncsc2c1)c1cc2c(cc1F)COB2O` [Compound 166], for which the inhibition at 200 ppm was at least 80%.

As for `O=C(Nc1ccc(S(=O)(=O)Nc2ccccn2)cc1)c1ccc2c(c1)B(O)OC2` [Compound 296], the inhibition at 200 ppm is at least 80%.

For `O=C(NCCc1ccccc1)c1cc2c(cc1F)COB2O` [Compound 111], the inhibition at 200 ppm was at least 80%.

As for `O=C(NCc1cccnc1)c1ccc2c(c1)B(O)OC2` [Compound 259], the inhibition at 200 ppm is at least 80%.

`Cc1cccc(Cl)c1NC(=O)c1ccc2c(c1)B(O)OC2` [Compound 281]: the inhibition at 200 ppm was at least 80%.

As for `O=C(NCCc1c[nH]c2ccccc12)c1cc2c(cc1F)COB2O` [Compound 130], the inhibition at 200 ppm is at least 80%.
